Consider 2 molecules from article PMC8602723, “Comparative assessment of antimicrobial, antiradical and cytotoxic activities of cannabidiol and its propyl analogue cannabidivarin” (Scientific Reports, 2021).

The subject of one assay is A549 cells. The experiment in a line: LDH assay (plasma membrane damage). The settings on record: Homo sapiens, read-out: IC50 LDH assay. In kind it is cell-based. Here is the method:
(§1) LDH assay is a high-throughput method based on the release of the LDH cytoplasmic enzyme from the cytosol into the extracellular space when the plasma membrane is damaged[29],[30]. Plasma membrane damage related to the amount of lysed cells was monitored by LDH assay, and the results were used for indirectly detecting the necrosis correlated to the leakage of the cytosolic enzyme due the loss of membrane permeability control[29],[30]. This assay was performed with the protocol described by Lehmann and colleagues.
(§2) Briefly, 1 × 10^4 A549 and Caco-2 cells and 2 × 10^4 HepG2, MDA-MB-231 and TelCOFS02MA cells were seeded in 100 µL of 1% FBS-fresh medium in each well of 96-well plates and incubated for 24 h at 37 °C with 95% humidity and 5% CO2. Then, the medium was removed and replaced with 100 µL of medium with different concentrations of CBD and CBDV, which were chosen on the basis of range-finding tests (as previously indicated). The plates were incubated at 37 °C for 72 h. In all experiments, the background control (wells with medium and without cells to obtain information about the LDH activity in the assay medium), low control (wells containing cells exposed only to the medium to determine spontaneous LDH release), high control (wells containing cells exposed to 2% Triton-X100 for 10 min before performing the assay to determine maximum LDH release), and solvent controls (2.5% methanol) were included. One hundred microlitres of supernatant was removed carefully from each well and transferred into corresponding wells in optically clear 96-well flat bottom microplates. One hundred microlitres of freshly prepared reaction mixture (Diaphorase (Catalyst)/NAD^+ /INT/sodium lactate) was added to each well and incubated for 30 min at 20 °C in darkness. Thus, NAD^+ was reduced to NADH/H^+ by the LDH-catalysed conversion of lactate to pyruvate. Then, the catalyst transferred H/H^+ from NADH/H^+ to the tetrazolium salt INT, which was reduced to formazan. To arrest the reaction, 50 µL/well of 1 N HCl was added. The spectrophotometric absorbance was determined at 492 nm. The absorbance of the background control wells was subtracted from all other values.
(§3) The results are reported as percentages of cytotoxicity, which is linked to the percentage of LDH released from damaged plasma membranes, calculated as follows:3 IC%=OD492sample-OD492lowcontrol/OD492highcontrol-OD492lowcontrol·100
(§4) IC50 values (concentrations of the sample to obtain 50% cytotoxicity) were calculated.
(§5) All results from five independent experiments are expressed as the IC50 or EC50 as determined by analysis with Prism 5 software (GraphPad Inc., San Diego, CA, USA) and nonlinear regression (log agonist vs. normalized response-variable slope) with a 95% confidence range. Lowest observed adverse effect concentrations (LOAECs) were calculated by one-way ANOVA and Dunnett’s comparison test. Differences compared to the controls were considered significant as follows: *p < 0.05, **p < 0.001 and ***p < 0.0001.

The next assay has as its system MDA-MB-231 cells. The experiment in a line: LDH assay (plasma membrane damage). In kind it is cell-based. The settings on record: Homo sapiens, read-out: IC50 LDH assay. The method, then: as §1, §2, §3, §4, §5
The subject of assay [1] is Caco-2 cells. The experiment in a line: LDH assay (plasma membrane damage). In kind it is cell-based. The settings on record: Homo sapiens, read-out: IC50 LDH assay. Here is the method: as §1, §2, §3, §4, §5
The subject of assay [2] is Hep G2 cells. The experiment in a line: LDH assay (plasma membrane damage). In kind it is cell-based. The settings on record: Homo sapiens, read-out: IC50 LDH assay. The method, then:
as §1, §2, §3, §4, §5

In the next assay the test system is TelCOFS02MA cells. The experiment in a line: BrdU-ELISA (DNA synthesis inhibition). In kind it is cell-based, human. The settings on record: for IC50: Homo sapiens, read-out: IC50 BrdU-ELISA. The method, then:
(§6) BrdU-ELISA was performed according to the protocol described by Lehmann and collaborators, and the results were used to evaluate the inhibition of DNA synthesis. A total of 1 × 10^4 cells/well were seeded in 100 µL of fresh medium into 96-well plates in triplicate at 37 °C in a humidified atmosphere of 95% air plus 5% CO2 for 24 h. Then, the medium was removed and replaced with 200 µL of medium with the same concentrations of CBD and CBDV that had been used in the previous test. In all experiments, blanks (wells with medium and without cells), negative controls (with only medium) and solvent controls (2.5% methanol) were included. The plates were incubated at 37 °C for 72 h. Then, 20 µL of 100 µM BrdU labelling solution was added to each well and incubated for 2 h at 37 °C. After removing the labelling solution, 200 µl of DNA fixing/denaturing solution was added to each well and incubated for 30 min at room temperature. After its discharge, 100 µL of the anti-BrdU-POD antibody solution [0.075 U/mL] was added to each well and incubated for 90 min at room temperature. After several washing steps with 1X PBS (200–300 µL/well), 100 µl of tetramethylbenzidine (TMB) was added to each well and incubated for 20–30 min (sufficient time for the colour change). The incorporation of BrdU into DNA was quantified spectrophotometrically at 370 nm. […] The mean absorbance of the control cells represented 100% cell proliferation, and the mean absorbance of the treated cells was related to the control values to determine cell sensitivity. Inhibition (%) of DNA synthesis/cell viability was determined as follows:2 IC%=1-OD370sample/OD370negativecontrol·100
(§7) IC50 values (representing the median concentration at which DNA synthesis and cell viability were reduced by 50%) were calculated.
as §5
Background: In an ELISA, binding on a coated surface is turned into a signal by an enzyme label.

The test system of assay [3] is Caco-2 cells. The experiment in a line: BrdU-ELISA (DNA synthesis inhibition). In kind it is cell-based, human. The settings on record: for IC50: Homo sapiens, read-out: IC50 BrdU-ELISA. The method, then:
as §6, §7, §5

For assay [4], the system named is Hep G2 cells. The experiment in a line: BrdU-ELISA (DNA synthesis inhibition). In kind it is cell-based, human. The settings on record: for IC50: Homo sapiens, read-out: IC50 BrdU-ELISA. Here is the method:
as §6, §7, §5

Setting [5] is: Caco-2, 72 h exposure, 95% confidence interval in brackets.
The mark [6] stands for this setting: HepG2, Hep G2, 72 h exposure, 95% confidence interval in brackets.

Like-named read-outs stand apart in the source and are kept apart here.

`C=C(C)[C@@H]1CCC(C)=C[C@H]1c1c(O)cc(CCCCC)cc1O` [CBD, Cannabidiol]: the concentration for half-maximal inhibition (IC50) in the assay with A549 cells (A549, 72 h exposure, 95% confidence interval in brackets) came to 24 µM; in the assay on MDA-MB-231 cells (MDA-MB-231, 72 h exposure, 95% confidence interval in brackets) it was 22.1 µM; in the assay on Caco-2 cells [1] (setting [5]), 22.8 µM; in the assay with Hep G2 cells [2] (setting [6]), 18.1 µM; in the assay on TelCOFS02MA cells (TelCOFS02MA, 72 h exposure, 95% confidence interval in brackets), 49.1 µM; with Caco-2 cells [3] (setting [5]), 33.3 µM. The IC50 in the assay with Hep G2 cells [4] (setting [6]) turned out to be 39.2 µM.

In the case of `C=C(C)[C@@H]1CCC(C)=C[C@H]1c1c(O)cc(CCC)cc1O` [CBDV, cannabidivarin], the half-inhibitory concentration (IC50) in the assay on A549 cells (A549, 72 h) was determined as 26.3 µM; with MDA-MB-231 cells (MDA-MB-231, 72 h), 33.8 µM; in the assay with Caco-2 cells [1] (Caco-2, 72 h), 29.1 µM; in the assay with Hep G2 cells [2] (HepG2, 72 h), 21.2 µM; with TelCOFS02MA cells (72 h), 69.1 µM; in the assay on Caco-2 cells [3] (Caco-2, 72 h) it was 40.4 µM. The IC50 with Hep G2 cells [4] (HepG2, 72 h) came out at 46.7 µM. Moreover, the “LOAEC BrdU-ELISA” value amounted to 44 µM with TelCOFS02MA cells (TelCOFS02MA, 72 h); 22 µM in the assay with Caco-2 cells [3] (Caco-2, 72 h); 22 µM in the assay with Hep G2 cells [4] (Hep G2, 72 h).

A word on the IC50: it is the concentration needed to halve the response being measured.
